Results reported in patent US20190194179A1, “ANTIBIOTIC COMPOUNDS” (DISCUVA LTD., priority 2016, published 2019).

tested on: Neisseria gonorrhoeae; test: EC50 determination: plate-based broth growth assay (absorbance at 600 nm) of Neisseria gonorrhoeae; assay type: cell-based; conditions: absorbance 600 nm after 20 hours at 37° C./5% CO2, read-out: IC50 (Inhibitory concentration) against Neisseria gonorrhoeae
Experimental: Actively growing Neisseria gonorrhoeae on GC agar (based on; Spence et. al. (2008): Curr. Protoc. Microbiol. 8:4A.1.1-4A.1.26) plates are harvested and transferred to GC broth (based on; Spence et al (2008): Curr. Protoc. Microbiol. 8:4A.1.1-4A.1.26) to generate a liquid stock. This culture is allowed to establish and grow to mid-log phase (at 37° C./5% CO2), finally this culture is diluted (˜10^5 cells/ml) to generate a seed inoculum to establish plate-based broth assays. EC50 values were determined by assaying growth (absorbance read at 600 nm, after 20 hours at 37° C./5% CO2) of Neisseria gonorrhoeae across a 10-point dilution series of the test compound. The EC50 value is determined from transformed data to identify the concentration of compound giving a 50% response relative to control samples (no compound).

| Structure (SMILES) | IC50 [µM] |
| --- | --- |
| O=C(Nc1ccccc1)c1csc(Nc2nc3cc(C(F)(F)F)ccc3o2)n1 [Example 5, N-Phenyl-2-((5-(trifluoromethyl)benzo[d]oxazol-2-yl)amino)thiazole-4-carboxamide] | ≤ 1 |
| FC(F)(F)c1ccc2oc(Nc3nccs3)nc2c1 [Example 6, N-(Thiazol-2-yl)-5-(trifluoromethyl)benzo[d]oxazol-2-amine] | ≤ 1 |
| Cc1csc(Nc2nc3cc(C(F)(F)F)ccc3o2)n1 [Example 7, N-(4-Methylthiazol-2-yl)-5-(trifluoromethyl)benzo[d]oxazol-2-amine] | ≤ 1 |
| CCOC(=O)c1csc(Nc2nc3cc(C(F)(F)F)ccc3o2)n1 [Example 8, Ethyl 2-((5-(trifluoromethyl)benzo[d]oxazol-2-yl)amino)thiazole-4-carboxylate] | ≤ 1 |
| O=C(Nc1cccc(F)c1)c1csc(Nc2nc3cc(C(F)(F)F)ccc3o2)n1 [Example 9, N-(3-Fluorophenyl)-2-((5-(trifluoromethyl)benzo[d]oxazol-2-yl)amino)thiazole-4-carboxamide] | ≤ 1 |
| O=C(Nc1cccc(Cl)c1)c1csc(Nc2nc3cc(C(F)(F)F)ccc3o2)n1 [Example 10, N-(3-Chlorophenyl)-2-((5-(trifluoromethyl)benzo[d]oxazol-2-yl)amino)thiazole-4-carboxamide] | ≤ 1 |
| FC(F)(F)c1ccc2oc(Nc3ccon3)nc2c1 [Example 11, N-(Isoxazol-3-yl)-5-(trifluoromethyl)benzo[d]oxazol-2-amine] | ≤ 1 |
| Cn1cc(Nc2nc3cc(C(F)(F)F)ccc3o2)nn1 [Example 12, N-(1-Methyl-1H-1,2,3-triazol-4-yl)-5-(trifluoromethyl)benzo[d]oxazol-2-amine] | ≤ 10 |
| CC(C)(C)c1csc(Nc2nc3cc(C(F)(F)F)ccc3o2)n1 [Example 13, N-(4-(tert-butyl)thiazol-2-yl)-5-(trifluoromethyl)benzo[d]oxazol-2-amine] | ≤ 10 |
| FC(F)(F)c1ccc2oc(Nc3nncs3)nc2c1 [Example 14, N-(1,3,4-Thiadiazol-2-yl)-5-(trifluoromethyl)benzo[d]oxazol-2-amine] | ≤ 1 |
| Cc1nnc(Nc2nc3cc(C(F)(F)F)ccc3o2)o1 [Example 22, N-(5-Methyl-1,3,4-oxadiazol-2-yl)-5-(trifluoromethyl)benzo[d]oxazol-2-amine] | ≤ 1 |
| FC(F)(F)c1ccc2oc(Nc3ncns3)nc2c1 [Example 23, N-(1,2,4-Thiadiazol-5-yl)-5-(trifluoromethyl)benzo[d]oxazol-2-amine] | ≤ 1 |
| FC(F)(F)c1ccc2nc(Nc3ncc(N4CCOCC4)s3)oc2c1 [Example 27, N-(5-Morpholinothiazol-2-yl)-6-(trifluoromethyl)benzo[d]oxazol-2-amine] | ≤ 1 |
| FC(F)(F)c1ccc2nc(Nc3ncc(N4CCCCC4)s3)oc2c1 [Example 28, N-(5-(Piperidin-1-yl)thiazol-2-yl)-6-(trifluoromethyl)benzo[d]oxazol-2-amine] | ≤ 1 |
| O=C(NC1CC1)c1nnc(Nc2nc3ccc(C(F)(F)F)cc3o2)o1 [Example 30, N-Cyclopropyl-5-((6-(trifluoromethyl)benzo[d]oxazol-2-yl)amino)-1,3,4-oxadiazol-2-carboxamide] | ≤ 100 |
| Cc1noc(Nc2nc3cc(C(F)(F)F)ccc3o2)n1 [Example 31, N-(3-Methyl-1,2,4-oxadiazol-5-yl)-5-(trifluoromethyl)benzo[d]oxazol-2-amine] | ≤ 1 |
| CN1CCN(c2cnc(Nc3nc4cc(C(F)(F)F)ccc4o3)s2)CC1 [Example 32, N-(5-(4-Methylpiperazin-1-yl)thiazol-2-yl)-5-(trifluoromethyl)benzo[d]oxazol-2-amine] | ≤ 1 |
| NC(=O)c1csc(Nc2nc3ccc(Cl)cc3o2)n1 [Example 33, 2-((6-Chlorobenzo[d]oxazol-2-yl)amino)thiazole-4-carboxamide] | ≤ 1 |
| NC(=O)c1csc(Nc2nc3cc(C(F)(F)F)c(Cl)cc3o2)n1 [Example 34, 2-((6-Chloro-5-(trifluoromethyl)benzo[d]oxazol-2-yl)amino)thiazole-4-carboxamide] | ≤ 1 |

Results, then the compound that gave them:

| IC50 [µM] | Structure (SMILES) |
| --- | --- |
| ≤ 1 | O=C(NC1CC1)c1csc(Nc2nc3cc(C(F)(F)F)ccc3o2)n1 [Example 1, N-Cyclopropyl-2-((5-(trifluoromethyl)benzo[d]oxazol-2-yl)amino)thiazole-4-carboxamide] |
| ≤ 1 | CNC(=O)c1csc(Nc2nc3cc(C(F)(F)F)ccc3o2)n1 [Example 2, N-Methyl-2-((5-(trifluoromethyl)benzo[d]oxazol-2-yl)amino)thiazole-4-carboxamide] |
| ≤ 1 | CCNC(=O)c1csc(Nc2nc3cc(C(F)(F)F)ccc3o2)n1 [Example 3, N-Ethyl-2-((5-(trifluoromethyl)benzo[d]oxazol-2-yl)amino)thiazole-4-carboxamide] |
| ≤ 1 | CC(C)NC(=O)c1csc(Nc2nc3cc(C(F)(F)F)ccc3o2)n1 [Example 4, N-Isopropyl-2-((5-(trifluoromethyl)benzo[d]oxazol-2-yl)amino)thiazole-4-carboxamide] |
| ≤ 1 | O=C(NC1CC1)c1csc(Nc2nc3ccccc3o2)n1 [Example 15, 2-(Benzo[d]oxazol-2-ylamino)-N-cyclopropylthiazole-4-carboxamide] |
| ≤ 1 | Cc1ccc2oc(Nc3nc(C(=O)NC4CC4)cs3)nc2c1 [Example 16, N-Cyclopropyl-2-((5-methylbenzo[d]oxazol-2-yl)amino)thiazole-4-carboxamide] |
| ≤ 1 | O=C(NC1CC1)c1csc(Nc2nc3cc(Cl)ccc3o2)n1 [Example 17, 2-((5-Chlorobenzo[d]oxazol-2-yl)amino)-N-cyclopropylthiazole-4-carboxamide] |
| ≤ 1 | O=C(NC1CC1)c1csc(Nc2nc3cc(F)ccc3o2)n1 [Example 18, N-Cyclopropyl-2-((5-fluorobenzo[d]oxazol-2-yl)amino)thiazole-4-carboxamide] |
| ≤ 1 | O=C(NC1CC1)c1csc(Nc2nc3ccc(F)cc3o2)n1 [Example 19, N-Cyclopropyl-2-((6-fluorobenzo[d]oxazol-2-yl)amino)thiazole-4-carboxamide] |
| ≤ 0.1 | O=C(NC1CC1)c1csc(Nc2nc3ccc(Cl)cc3o2)n1 [Example 20, 2-((6-Chlorobenzo[d]oxazol-2-yl)amino)-N-cyclopropylthiazole-4-carboxamide] |
| ≤ 1 | NC(=O)c1csc(Nc2nc3cc(C(F)(F)F)ccc3o2)n1 [Example 21, 2-((5-(Trifluoromethyl)benzo[d]oxazol-2-yl)amino)thiazole-4-carboxamide] |
| ≤ 1 | O=C(NC1CC1)c1coc(Nc2nc3cc(C(F)(F)F)ccc3o2)n1 [Example 24, N-Cyclopropyl-2-((5-(trifluoromethyl)benzo[d]oxazol-2-yl)amino)oxazole-4-carboxamide] |
| ≤ 1 | Cc1sc(Nc2nc3cc(C(F)(F)F)ccc3o2)nc1C(=O)NC1CC1 [Example 25, N-Cyclopropyl-5-methyl-2-((5-(trifluoromethyl)benzo[d]oxazol-2-yl)amino)thiazole-4-carboxamide] |
| ≤ 0.1 | O=C(NC1CC1)c1csc(Nc2nc3ccc(C(F)(F)F)cc3o2)n1 [Example 26, N-Cyclopropyl-2-((6-(trifluoromethyl)benzo[d]oxazol-2-yl)amino)thiazole-4-carboxamide] |
